Structures can show the parent of a compound that is named as a salt.
Key:
Abl kinase = Abl kinase (Homo sapiens, UniProt P00519); assay: biochemical; settings: Abl IC50 (nM), Abl kinase (Invitrogen, 20 ng/well), Abltide 100 μM, ATP 500 nM, 37° C. for 60 minutes, top concentration 10 uM
Description: Kinase activity was assessed using luminescent detection (KinaseGlo, Promega) of residual ATP concentration in reaction mixtures containing optimized levels of kinase, substrate, ATP, compound and appropriate buffers. Kinase, substrate and ATP concentrations were determined per the supplier's recommendations. Briefly, this involved running concentration curves to select for optimal signal.
The reaction mixture (50 ul/well) consisted of Abl kinase (Invitrogen, 20 ng/well); Abltide peptide substrate (Upstate, 100 μM) and ATP (500 nM). Each compound was evaluated at a top concentration of 10 uM with 1:3 dilution steps, 10 dilution steps total. Compound was diluted into DMSO and transferred to the reaction plate, resulting in a final DMSO concentration of 2%. This amount of DMSO was determined not to interfere with the enzyme. The reaction was conducted at 37° C. for 60 minutes. The degree of inhibition was assessed using IC50 determinations, which were obtained using GraphPad Prism4.

Abl (T315I) = biological target: T1, Abl (T315I) (Homo sapiens, UniProt P00519, T315I); assay: Abl (T315I) Kinase Assay (KinaseGlo luminescent detection of residual ATP); type: biochemical; settings: Abl (T315I) IC50 (nM), Abl (T315I) (Upstate, 17 ng/well), Abltide 100 uM, ATP 500 nM, 60 minutes at 37° C.
T1 construct: purchased Upstate
Description: The assay was performed similarly to the Abl kinase assay. Abl (T315I) (Upstate, 17 ng/well); Abltide substrate (100 uM) and ATP (500 nM) comprised the reaction mixture. Compound was similarly diluted, and the reaction plate was incubated for 60 minutes at 37° C.

Row | IC50 (Abl kinase) [nM] | IC50 (Abl (T315I)) [nM] | SMILES
1 | 469 | 136 | Nc1cn2cc(/C=C/c3cnc(Nc4ccc(S(=O)(=O)C5CCNCC5)cc4)nc3)ccc2n1 [6-[(E)-2-(2-{[4-(piperidin-4-ylsulfonyl)phenyl]amino}pyrimidin-5-yl)vinyl]imidazolo[1,2-a]pyridin-2-amine trifluoroacetic acid salt]
2 | 51 | 562 | Cc1cccc(/C=C/c2cnc(Nc3ccc(S(=O)(=O)C4CCNCC4)cc3)nc2)c1 [5-(3-(methyl)styryl)-N-(4-(piperidin-4-ylsulfonyl)phenyl)pyrimidin-2-amine. TFA]
3 | 3260 | 4180 | O=S(=O)(c1ccc(Nc2ncc(/C=C/c3ccc(-c4nnn[nH]4)cc3)cn2)cc1)C1CCNCC1 [5-((E)-4-(1H-tetrazol-5-ylsulfonyl)phenyl)pyrimidin-yl)styryl)-N-(4-(piperidin-4-2-amine hydrochloride]
4 | 22200 | 4640 | C=Cc1cnc(Nc2ccc(S(=O)(=O)N3CCNCC3)c(N3CCNCC3)c2)nc1 [N-[3-piperazin-1-yl-4-(piperazin-1-ylsulfonyl)phenyl]-5-vinylpyrimidin-2-amine trifluoroacetic acid salt]
5 | 22 | 450 | O=S(=O)(c1ccc(Nc2ncc(/C=C/c3cccc4[nH]ccc34)cn2)cc1)N1CCNCC1 [5-[(E)-2-(1H-indol-4-yl)vinyl]-N-{4-(piperazin-1-ylsulfonyl)phenyl]pyrimidin-2-amine]
6 | 84 | 885 | O=S(=O)(c1ccc(Nc2ncc(/C=C/c3cccc4[nH]ccc34)cn2)cc1N1CCNCC1)N1CCNCC1 [5-[(E)-2-(1H-indol-4-yl)vinyl]-N-[3-piperazin-1-yl-4-(piperazin-1-ylsulfonyl)phenyl]pyrimidin-2-amine trifluoroacetic acid salt]
7 | 39 | 436 | Cc1nc(Nc2ccc(S(=O)(=O)NCCN3CCCC3)cc2)ncc1/C=C/c1cccc(O)c1 [4-{5-[2-(3-Hydroxy-phenyl)-vinyl]-4-methyl-pyrimidin-2-ylamino}-N-(2-pyrrolidin-1-yl-ethyl)-benzenesulfonamide]
8 | 59 | 67 | O=S(=O)(c1ccc(Nc2ncc(/C=C/c3cc(C(F)(F)F)cc4[nH]nnc34)cn2)cc1)N1CCCNCC1 [[4-([1,4]Diazepane-1-sulfonyl)-phenyl]-{5-[2-(6-trifluoromethyl-1H-benzotriazol-4-yl)-vinyl]-pyrimidin-2-yl}-amine]
9 | 5 | 805 | O=S(=O)(NCCN1CCCC1)c1ccc(Nc2ncc(CCc3cc(O)ccc3Cl)cn2)cc1 [4-{5-[2-(2-Chloro-5-hydroxy-phenyl)-ethyl]-pyrimidin-2-ylamino}-N-(2-benzenesulfonamide hydrochloride]
10 | 100 | 94 | Nc1nc2ccc(/C=C/c3cnc(Nc4ccc(S(=O)(=O)N5CCNCC5)c(F)c4)nc3)cc2s1 [6-[(E)-2-(2-{[3-fluoro-4-ylsulfonyl)phenyl]amino}pyrimidin-5-yl)vinyl]-1,3-benzothiazol-2-amine]
11 | 169 | 76 | Nc1nc2ccc(/C=C/c3cnc(Nc4ccc(S(=O)(=O)CC5CCNCC5)cc4)nc3)cc2s1 [6-(2-{2-[4-(Piperidin-4-ylmethanesulfonyl)-phenylamino]-pyrimidin-5-yl}-vinyl)-benzothiazol-2-ylamine]
12 | 158 | 146 | Nc1nc2ccc(/C=C/c3cnc(Nc4ccc(S(=O)(=O)N5CCC(NCCO)CC5)cc4)nc3)cc2s1 [2-[(1-{[4-({5-[(E)-2-(2-amino-1,3-benzothiazol-6-yl)vinyl]pyrimidin-2-yl}amino)phenyl]sulfonyl}piperidin-4-yl)amino]ethanol]
13 | 17 | 1280 | O=C(Nc1cccc(/C=C/c2cnc(Nc3ccc(S(=O)(=O)C4CCNCC4)cc3)nc2)c1)c1cccc(C(F)(F)F)c1 [N-(3-((E)-2-(2-(4-(piperidin-4-ylsulfonyl)phenylamino)pyrimidin-5-yl)vinyl)phenyl)-3-(trifluoromethyl)benzamide Hydrochloride]
14 | 3800 | 1230 | O=S(=O)(c1ccc(Nc2ncc(/C=C/c3ccc(-c4cn[nH]c4)cc3)cn2)cc1)N1CCNCC1 [N-[4-(piperazin-1-ylsulfonyl)phenyl]-5-{(E)-2-[4-(1H-pyrazol-4-yl)phenyl]vinyl}pyrimidin-2-amine]
15 | 13 | 195 | O=S(=O)(c1ccc(Nc2ncc(/C=C/c3cccc4[nH]ccc34)cn2)cc1)N1CCCNCC1 [[4-([1,4]Diazepane-1-sulfonyl)-phenyl]-{5-[2-(1H-indol-4-yl)-vinyl]-pyrimidin-2-yl}-amine]
16 | 37 | 138 | O=S(=O)(c1ccc(Nc2ncc(/C=C/c3ccc4[nH]ccc4c3)cn2)cc1)C1CCNCC1 [{5-[2-(1H-Indol-5-yl)-vinyl]-pyrimidin-2-yl}-[4-(piperidine-4-sulfonyl)-phenyl]-amine]

Row | IC50 (Abl kinase) [nM] | IC50 (Abl (T315I)) [nM] | SMILES
17 | 233 | 237 | CCNC(=O)N1CCC(S(=O)(=O)c2ccc(Nc3ncc(/C=C/c4ccc5nc(N)sc5c4)cn3)cc2)CC1 [4-(4-{5-[2-(2-Amino-benzothiazol-6-yl)-vinyl]-benzenesulfonyl)-piperidine-pyrimidin-2-ylamino)-1-carboxylic acid ethylamide]
18 | 12 | 213 | O=S(=O)(c1ccc(Nc2ncc(/C=C/c3ccc(F)c(O)c3)cn2)cc1)C1CCNCC1 [2-Fluoro-5-(2-{2-[4-(piperidine-4-sulfonyl)-phenylamino]-pyrimidin-5-yl}-vinyl)-phenol]
19 | 1.5 | 29 | O=S(=O)(c1ccc(Nc2ncc(/C=C/c3cccc4[nH]ncc34)cn2)cc1)C1CCNCC1 [5-((E)-2-(1H-indazol-4-ylsulfonyl)phenyl)pyrimidin-yl)vinyl)-N-(4-(piperidin-4-2-amine trifluoroacetic acid salt]
20 | 84 | 33 | Nc1nc2ccc(/C=C/c3cnc(Nc4ccc(S(=O)(=O)N(CCO)C5CCNCC5)cc4)nc3)cc2s1 [4-({5-[(E)-2-(2-amino-1,3-benzothiazol-6-vinyl]pyrimidin-2-yl}amino)-N-(2-hydroxyethyl)-N-piperidin-4-ylbenzenesulfonamide]
21 | 56 | 266 | O=S(=O)(c1ccc(Nc2ncc(/C=C/c3cccc(O)c3)cn2)cc1F)N1CCNCC1 [3-(2-{2-[3-Fluoro-4-(piperazine-1-sulfonyl)-phenylamino]-pyrimidin-5-yl}-vinyl)-phenol]
22 | 119 | 115 | Nc1nc2ccc(/C=C/c3cnc(Nc4ccc(S(=O)(=O)N5CCNCC5CO)cc4)nc3)cc2s1 (stereo not shown) [(1-{[4-({5-[(E)-2-(2-amino-1,3-benzothiazol-6-yl)vinyl]pyrimidin-2-yl}amino)phenyl]sulfonyl}piperazin-2-yl)methanol]
23 | 43 | 464 | C[C@H](N)C(=O)N1CCC(S(=O)(=O)c2ccc(Nc3ncc(/C=C/c4cccc5[nH]ccc45)cn3)cc2)CC1 [(S)-1-(4-(4-(5-((E)-2-(1H-indol-4-yl)vinyl)pyrimidin-2-ylamino)phenylsulfonyl)piperidin-1-yl)-2-aminopropan-1-one hydrochloride]
24 | 272 | 283 | Nc1nc2ccc(/C=C/c3cnc(Nc4ccc([S+]([O-])CCN5CCOCC5)cc4)nc3)cc2s1 (stereo not shown) [6-(2-{2-[4-(2-Morpholin-4-yl-ethanesulfinyl)-phenylamino]-pyrimidin-5-yl}-vinyl)-benzothiazol-2-ylamine]
25 | 585 | 354 | Nc1nc2ccc(/C=C/c3cnc(Nc4ccc(S(=O)(=O)NCCO)c(N5CCNCC5)c4)nc3)cc2s1 [4-({5-[(E)-2-(2-amino-1,3-benzothiazol-6-yl)vinyl]pyrimidin-2-yl}amino)-N-(2-hydroxyethyl)-2-piperazin-1-ylbenzenesulfonamide]
26 | 31 | 96 | O=S(=O)(CC1CCNCC1)c1ccc(Nc2ncc(/C=C/c3cccc(O)c3)cn2)cc1 [3-(2-{2-[4-(Piperidin-4-ylmethanesulfonyl)-phenylamino]-pyrimidin-5-yl}-vinyl)-phenol]
27 | 222 | 1410 | O=S(=O)(c1ccc(Nc2ncc(/C=C/c3cccc(O)c3)cn2)cc1C(F)(F)F)N1CCNCC1 [3-(2-{2-[4-(Piperazine-1-sulfonyl)-3-trifluoromethyl-phenylamino]-pyrimidin-5-yl}-vinyl)-phenol]
28 | 565 | 3200 | O=S(=O)(c1ccc(Nc2ncc(/C=C/c3cccc(C(F)(F)F)c3)cn2)cc1)C1CCNCC1 [5-(3-(trifluoromethyl)styryl)-N-(4-(piperidin-4-ylsulfonyl)phenyl)pyrimidin-2-amine. TFA]
29 | 25 | 240 | O=S(=O)(NCCN1CCCC1)c1ccc(Nc2ncc(/C=C/c3cc(O)ccc3F)cn2)cc1 [4-{5-[2-(2-Fluoro-5-hydroxy-phenyl)-vinyl]-pyrimidin-2-ylamino}-N-(2-pyrrolidin-1-yl-ethyl)-benzenesulfonamide]
30 | 8.9 | 112 | O=S(=O)(NCCCO)c1ccc(Nc2ncc(/C=C/c3cccc(O)c3)cn2)cc1 [4-{5-[2-(3-Hydroxy-phenyl)-vinyl]-pyrimidin-2-ylamino}-N-(3-hydroxy-propyl)-benzenesulfonamide]
31 | 172 | 664 | COc1cccc(/C=C/c2cnc(Nc3ccc(S(=O)(=O)C4CCNCC4)cc3)nc2)c1 [{5-[2-(3-Methoxy-phenyl)-vinyl]-pyrimidin-2-yl}-[4-piperidine-4-sulfonyl)-phenyl]-amine]
32 | 13 | 386 | O=S(=O)(CCCN1CCCC1)c1ccc(Nc2ncc(/C=C/c3cccc4[nH]ccc34)cn2)cc1 [5-[(E)-2-(1H-indol-4-pyrrolidin-1-ylpropyl)sulfonyl]phenyl}pyrimidin-2-amine]
